Measurements from the supplement of paper PMC13380429.

What was measured:
Settings in all cases: 72 h
[1] = system: U2OS; assay: cell viability relative to DMSO; higher = less toxic
[2] = system: Caco-2; assay: as above
[3] = system: HepG2; assay: as above
[4] = system: Calu-3; assay: as above
[5] = system: Vero E6; assay: as above
[6] = system: U2OS; assay: drug sensitivity score (DSS) for viability; higher = more toxic; extreme values may be limits of the assay
[7] = system: Caco-2; assay: as above
[8] = system: HepG2; assay: as above
[9] = system: Calu-3; assay: as above
[10] = system: Vero E6; assay: as above
[11] = system: U2OS; assay: relative viability EC50 (midpoint between 100% and the lowest measured viability); higher = less toxic
[12] = system: Caco-2; assay: as above
[13] = system: HepG2; assay: as above
[14] = system: Calu-3; assay: as above
[15] = system: Vero E6; assay: as above

Row | SMILES | cell viability ([1]; 1 nM) | cell viability ([1]; 10 nM) | cell viability ([1]; 100 nM) | cell viability ([1]; 1000 nM) | cell viability ([1]; 10000 nM) | cell viability ([2]; 1 nM) | cell viability ([2]; 10 nM) | cell viability ([2]; 100 nM) | cell viability ([2]; 1000 nM) | cell viability ([2]; 10000 nM) | cell viability ([3]; 1 nM) | cell viability ([3]; 10 nM) | cell viability ([3]; 100 nM) | cell viability ([3]; 1000 nM) | cell viability ([3]; 10000 nM) | cell viability ([4]; 1 nM) | cell viability ([4]; 10 nM) | cell viability ([4]; 100 nM) | cell viability ([4]; 1000 nM) | cell viability ([4]; 10000 nM) | cell viability ([5]; 1 nM) | cell viability ([5]; 10 nM) | cell viability ([5]; 100 nM) | cell viability ([5]; 1000 nM) | cell viability ([5]; 10000 nM) | drug sensitivity score [6] | drug sensitivity score [7] | drug sensitivity score [8] | drug sensitivity score [9] | drug sensitivity score [10] | relative viability EC50 [11] | relative viability EC50 [12] | relative viability EC50 [13] | relative viability EC50 [14] | relative viability EC50 [15]
1 | CCCCCn1cc(C(=O)NC23CC4CC(CC(C4)C2)C3)c(=O)c2cc(-c3ccccc3)ccc21 [COR-170] | 96.2% | 99.9% | 98.3% | 94.7% | 99.9% | 90.9% | 103% | 100% | 100% | 98.3% | 103% | 93.6% | 91% | 105% | 92.1% | 105% | 89.2% | 104% | 98.2% | 97% | 100% | 97.7% | 103% | 106% | 94.8% | 0 | 0 | 0 | 0 | 0 | > 10 µM | > 10 µM | > 10 µM | > 10 µM | > 10 µM
2 | CCCCCCCC(=O)N[C@H](CN1CCCC1)[C@H](O)c1ccc2c(c1)OCCO2 [eliglustat] | 101% | 95.4% | 97.8% | 94.6% | 95.3% | 103% | 96.7% | 95.1% | 99.8% | 99.8% | 100% | 109% | 95.8% | 108% | 92% | 98.7% | 98.3% | 96% | 99.5% | 93.2% | 97.3% | 91.6% | 84.3% | 84.2% | 85.5% | 0 | 0 | 0 | 0 | 3.1 | > 10 µM | > 10 µM | > 10 µM | > 10 µM | > 10 µM
3 | O=C(O)C(=O)Nc1cccc(-c2nnn[nH]2)c1 [acitazanolast] | 99.8% | 98.4% | 99.3% | 101% | 96% | 100% | 86.7% | 88.4% | 95.9% | 97.1% | 94.8% | 99% | 101% | 96.3% | 110% | 100% | 107% | 91.3% | 105% | 99% | 98.7% | 99.5% | 99.4% | 100% | 97.4% | 0 | 0 | 0 | 0 | 0 | > 10 µM | > 10 µM | > 10 µM | > 10 µM | > 10 µM
4 | CNC[C@@H]1CC[C@@H](N)[C@@H](O[C@H]2[C@H](O)[C@@H](O[C@H]3OC[C@](C)(O)[C@H](NC)[C@H]3O)[C@H](N)C[C@@H]2N)O1 [micronomicin] | 96% | 104% | 99.1% | 102% | 99.3% | 98.4% | 96.1% | 104% | 96% | 97.5% | 93.8% | 96.8% | 105% | 100% | 106% | 105% | 113% | 105% | 98% | 95.5% | 98.9% | 99.8% | 98.6% | 99.4% | 99.4% | 0 | 0 | 0 | 0 | 0 | > 10 µM | > 10 µM | > 10 µM | > 10 µM | > 10 µM
5 | CC[C@]1(O)C[C@H]2CN(CCc3c([nH]c4ccccc34)[C@@](C(=O)OC)(c3cc4c(cc3OC)N(C=O)[C@H]3[C@@](O)(C(=O)OC)[C@H](OC(C)=O)[C@]5(CC)C=CCN6CC[C@]43[C@@H]65)C2)C1 [Vincristine (sulfate)] | 97.1% | 80.8% | 35.4% | 19.5% | 17.6% | 91.9% | 66% | 42.5% | 41.4% | 34.8% | 109% | 68.4% | 39.2% | 35.4% | 36.9% | 88% | 78.2% | 54.8% | 39.6% | 34.6% | 98.9% | 102% | 82.9% | 34.2% | 29.8% | 24.7 | 23.3 | 24.3 | 19.1 | 14.4 | 0.0302 µM | 0.0094 µM | 0.0102 µM | 0.0248 µM | 0.196 µM
6 | COc1ccc2cc1Oc1cc3c(cc1OC)CC[N+](C)(C)[C@H]3Cc1ccc(cc1)Oc1c(OC)c(OC)cc3c1[C@@H](C2)[N+](C)(C)CC3 [metocurine] | 97.6% | 99.3% | 106% | 102% | 99.4% | 95.7% | 92.2% | 94.8% | 108% | 105% | 93.3% | 115% | 86.2% | 108% | 111% | 102% | 88.4% | 105% | 96.5% | 93.2% | 91.5% | 96.8% | 91.6% | 102% | 105% | 0 | 0 | 0 | 0 | 0 | > 10 µM | > 10 µM | > 10 µM | > 10 µM | > 10 µM
7 | CN1CCN(C(=O)O[C@H]2c3nccnc3C(=O)N2c2ccc(Cl)cn2)CC1 [ESZOPICLONE] | 98.3% | 87.6% | 99.5% | 98.3% | 96.6% | 93.8% | 98.3% | 94.3% | 98.6% | 100% | 97.2% | 95.2% | 92.8% | 102% | 101% | 109% | 106% | 91.2% | 104% | 99.6% | 97.3% | 101% | 93.6% | 97.2% | 111% | 0 | 0 | 0 | 0 | 0 | > 10 µM | > 10 µM | > 10 µM | > 10 µM | > 10 µM
